pIC50: −log10 of the molar value. Values joined by “and” are separate entries in the source; they are usually repeats but may differ in a detail not shown here. Equal entries are not always repeated.
Assays:
[1] = biological target: T1, biotinylated human IL-17 (binding to IL17R/Fc) (Homo sapiens, UniProt Q16552); assay: IL-17 competition ELISA II (captured IL17R/Fc, biotinylated IL-17)
T1 construct: purchased R&D Systems 317-ILB (IL-17, biotinylated); 177-IR (IL17R/Fc)
T1 sequence (Q16552 20-155 limits assumed): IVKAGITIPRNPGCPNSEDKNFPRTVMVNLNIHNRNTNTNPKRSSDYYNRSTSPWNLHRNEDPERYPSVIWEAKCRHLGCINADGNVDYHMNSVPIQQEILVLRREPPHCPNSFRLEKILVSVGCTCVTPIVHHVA
How it was run: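 Competition read-out: absorbance at 450 nm after streptavidin-HRP/TMB detection, fitted to a 4-parameter logistic model bounded by no-competitor and blank wells to give IC50. Compound was serially diluted 5-fold from 1 μM alongside 20 nM (stock) biotinylated IL-17 on IL17R/Fc (10 nM) captured via goat anti-human IgG, 30 min at room temperature.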

[2] = test system: DNFB-treated BALB/c mice; assay: Murine model of delayed hypersensitivity (DNFB-induced ear edema); format: in vivo, mouse; details: for Reduction in edema (%): ear weight 24 h after DNFB challenge
Procedure: We used a murine model of fluorodinitrobenzene (DNFB)-induced ear edema to test the anti-inflammatory activity of both orally dosed and intraperitoneally dosed exemplary compounds of the invention. BALB/c mice (Harlan Sprague-Dawley, Inc., male, 6-8 weeks old) were topically treated on their shaved abdomen with 30 μL of 0.5% 1-fluoro-2,4-dinitrobenzene (DNFB) (4:1 acetone:olive oil) once on Day 0 and once on Day 1.
For oral dosing (“PO”), exemplary compounds of the invention were either suspended at 3 mg/mL in 20% Cremophor EL (Sigma) (20:80; Cremophor:water) or dissolved at 1 mg/mL or 3 mg/mL in D-α-tocopherol polyethylene glycol 1000 succinate (TPGS; Sigma)/PEG-400/water (20:60:20). For intraperitoneal dosing (“IP”), exemplary compounds of the invention were dissolved in DMSO at a concentration of 5 mg/mL. On day 7, the test compound was administered (PO at either 10 mg/kg or 30 mg/kg; IP at 1, 3, or 10 mg/kg) to DNFB-treated mice. Commercially available anti-mouse IL-17A (BioLegend) administered intraperitoneally at 5 mg/kg in PBS was used as a positive control. Thirty minutes later, 20 μL of 0.2% DNFB was applied to the right ear of animals and vehicle ([…]:olive oil) was applied to the left ear. One and four hours after DNFB challenge, a subset of mice was exsanguinated and plasma prepared from the blood. Twenty-four hours after challenge, the remaining mice were euthanized, and their ears were removed and weighed to determine the amount of edema. Plasma was assayed for interleukin-6, TNF-α, CXCL1, and interferon-γ concentrations using commercially-available assays.

[3] = test system: murine collagen-induced arthritis; assay: Mouse collagen-induced arthritis (CIA) model; format: in vivo; details: for reduction of overall mean Clinical Arthritis Score: FIG. 11
Procedure: Exemplary compounds of the invention were evaluated in a murine CIA model. […] mice (10/group) were anaesthetized with Isoflurane, shaved at the base of the tail, and injected intradermally with 150 μL of Freund's Complete Adjuvant (Sigma) containing bovine type II collagen (Elastin Products, Owensville, Mo.) (2 mg/mL) at the base of the tail on day 0 and again on day 21. On study days 24-25, onset of arthritis occurred and mice were randomized into treatment groups. Randomization into each group was done after swelling was obviously established in at least one paw (score of 1), and attempts were made to ensure approximately equal mean scores of 0.25 across the groups at the time of enrollment. Once a day oral treatment with 10 or 30 mg/kg of test compound in 20% Cremophor EL was initiated after enrollment and continued once a day as indicated through arthritis day 10. Mice were terminated on day 11. Clinical scores were calculated for each of the paws (right front, left front, right rear, and left rear) on arthritis days 1-11 and the results were summarized as a reduction in clinical arthritis score for all paws over the time period of dosing.

Work on `O=C1CNC(=O)[C@@H](Cc2ccc(NC(=O)[C@H](Cc3ccccc3Cl)NC(=O)c3cccnc3)cc2)NC(=O)CC2(CCCC2)CC(=O)NCCCCCN1` [Compound 194] yielded a pIC50 [1] of over 7.00.
Compound `O=C1CNC(=O)[C@@H](Cc2ccc(NC(=O)[C@H](Cc3ccccc3Cl)NC(=O)Cc3ccccn3)cc2)NC(=O)CC2(CCCC2)CC(=O)NCCCCCN1` [Compound 226] has a pIC50 [1] of over 7.00.
In the case of `O=C1CNC(=O)[C@@H](Cc2ccc(NC(=O)[C@H](Cc3ccccc3Cl)NC(=O)Cc3ccccc3)cc2)NC(=O)CC2(CCCC2)CC(=O)NCCCCCN1` [Compound 159], the “reduction in TNF-α, IFN-γ and edema as compared to a PBS control or DMSO control” value ([2]; i.p. 10 mg/kg, FIG. 1) was “statistically significant reduction”, the “reduction in IL-6, IFN-γ and edema compared to a DMSO control” value ([2]; i.p. at 1 mg/kg, 3 mg/kg, or 10 mg/kg, FIG. 2) was “statistically significant reduction” and the “Reduction in edema (%)” value ([2]; ip, 1 mg/kg) was 17%. For the same compound, the “IFNγ Reduction (%)” value ([2]; ip, 1 mg/kg, plasma) was 54.2%, the “IL6 Reduction (%)” value ([2]; ip, 1 mg/kg, plasma) was 62.6% and the “Reduction in edema (%)” value ([2]; ip, 3 mg/kg) was 44%. The “IFNγ Reduction (%)” value ([2]; ip, 3 mg/kg, plasma) was 85.5%, the “IL6 Reduction (%)” value ([2]; ip, 3 mg/kg, plasma) was 72.2% and the “Reduction in edema (%)” value ([2]; ip, 10 mg/kg) was 54.1% and 54%. The “IL6 Reduction (%)” value ([2]; ip, 10 mg/kg, plasma) was 78.6%, the “TNFα Reduction (%)” value ([2]; ip, 10 mg/kg, plasma) was 21.7% and the “IL-6, IFN-γ, and edema, dose-dependent” value ([2]; orally dosed in TPGS/PEG400/Water vehicle, FIG. 5) was “effectively reduced”. The “Reduction in edema (%)” value ([2]; po, 10 mg/kg) was 19.0%, the “IFNγ Reduction (%)” value ([2]; po, 10 mg/kg, plasma) was 24.2% and the “IL6 Reduction (%)” value ([2]; po, 10 mg/kg, plasma) was 29.8%. For the same compound, the “Reduction in edema (%)” value ([2]; po, 30 mg/kg) was 53.7%, the “IFNγ Reduction (%)” value ([2]; po, 30 mg/kg, plasma) was 64.5% and the “IL6 Reduction (%)” value ([2]; po, 30 mg/kg, plasma) was 58.3%. For the same compound, the “reduction of overall mean Clinical Arthritis Score” value ([3]; orally 10 mg/kg) was 6%, the “reduction of overall mean Clinical Arthritis Score” value ([3]; orally 30 mg/kg) was 11% and the “reduction in mean Clinical Arthritis Score on days 27-30 as compared to vehicle controls” value ([3]; orally 10 and 30 mg/kg in 20% Cremophor EL, FIG. 10) was “superior reduction”.
`O=C1CNC(=O)[C@@H](Cc2ccc(NC(=O)[C@@H](NC(=O)Cc3ccccc3)C3CCCCC3)cc2)NC(=O)CC2(CCCC2)CC(=O)NCCCCCN1` [Compound 186] was tested, and the pIC50 [1] was over 7.00.

Source: patent publication US9284283B2, “Macrocyclic compounds for modulating IL-17” (ENSEMBLE THERAPEUTICS CORPORATION, priority 2012, dated 2016)
